Experimental findings from PubChem BioAssay (NCI) are described below.

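A five-concentration, 48-hour dose response in 96-well plates underlies each endpoint, interpolated linearly between surrounding concentrations. GI50 marks 50% less growth. TGI marks complete inhibition of growth.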

Usually GI50 stands for the concentration giving 50% growth inhibition. The TGI is the concentration giving total growth inhibition. The low end stands for greater sensitivity of the cells, the high end for lower sensitivity of the cells.

What all share (assay): DTP human tumour cell line panel, 48 h
The test system of experiment [1] is UACC-62 melanoma.
For experiment [2], the system named is OVCAR-5 ovarian.
For experiment [3], the system named is CCRF-CEM leukemia.
For experiment [4], the system named is NCI-H226 lung.
Experiment [5] has as its system SK-MEL-2 melanoma.
In experiment [6] the test system is TK-10 renal.
Experiment [7] has as its system HCT-15 colon.
For experiment [8], the system named is M14 melanoma.
The test system of experiment [9] is HT29 colon.
Experiment [10] deals with EKVX NSCLC.

For `O=C1NC(O)C(c2c[nH]c3ccccc23)=C1c1c[nH]c2ccccc12` (stereo not drawn), the GI50 in experiment [1] was 8.01 µM; in [2], greater than 25 µM; in experiment [3], greater than 25 µM; in experiment [4] it was greater than 25 µM; in experiment [5], greater than 25 µM; in [6], greater than 25 µM. For the same compound, the GI50 in experiment [7] is 18.4 µM; in experiment [8], greater than 25 µM; in [9], greater than 25 µM. Further, the TGI in experiment [1], in experiment [2], in experiment [3], in experiment [4], in [5] and in [6] was greater than 25 µM throughout. Also, the TGI in experiment [7], in experiment [8] and in experiment [9] was greater than 25 µM throughout.
`O=C(CNc1ccc2c(c1)C(=O)c1ccccc1C2=O)Nc1ccc2c(c1)C(=O)c1ccccc1C2=O`: the GI50 was 0.631 µM in experiment [1]; 1.84 µM in experiment [2]; 0.568 µM in experiment [4]; 0.697 µM in experiment [5]; 1.7 µM in experiment [6]; 1.88 µM in experiment [10]. Further, the GI50 in [7] was 0.312 µM; in [8], 0.712 µM; in experiment [9], 0.451 µM. Also, the TGI in experiment [1] amounted to 1.95 µM; in experiment [2] it was 3.4 µM; in experiment [4], 1.44 µM; in experiment [5], 2 µM; in experiment [6], 3.17 µM; in [10], 4.02 µM. Moreover, the TGI is 0.972 µM in [7], 2.04 µM in experiment [8] and 1.69 µM in experiment [9].
As for `CC1(C)N=C(N)N=C(N)N1c1ccc(OCCCCOc2ccc(S(=O)(=O)F)cc2)c(Cl)c1`, the GI50 in [1] is 0.0534 µM; in experiment [2], 0.302 µM; in experiment [3], 0.0794 µM; in [4] it was 0.58 µM; in experiment [5] it was 2.89 µM; in experiment [6] it was 1.13 µM. Also, the GI50 in experiment [7] was 1.12 µM; in experiment [8], 0.116 µM; in [9], 0.0519 µM. Also, the TGI came out at 18 µM in [1]; 22.7 µM in experiment [2]; 17.6 µM in [3]; 28.1 µM in [4]; 22.1 µM in [5]; 20.7 µM in experiment [6]. The TGI was greater than 100 µM in experiment [7], 15.3 µM in experiment [8] and 13.4 µM in experiment [9].
In the case of `c1ccc2[nH]c(-c3ccc(NN=Nc4ccncc4)cc3)nc2c1`, the GI50 was 75.1 µM in [1]; greater than 100 µM in [2]; greater than 100 µM in experiment [4]; 15.4 µM in experiment [5]; 52.5 µM in [6]; 11.2 µM in experiment [10]. In addition, the GI50 in [7] is 17.7 µM; in experiment [8] it was greater than 100 µM. Moreover, the TGI was greater than 100 µM in experiment [1]; greater than 100 µM in [2]; greater than 100 µM in experiment [4]; greater than 100 µM in experiment [5]; greater than 100 µM in [6]; 54.1 µM in experiment [10]. Moreover, the TGI in [7] and in [8] was greater than 100 µM throughout.
Take `Oc1cc(O)c2c(-c3c(O)c(-c4ccc(O)c(O)c4)[o+]c4cc(O)cc(O)c34)c(O)c(-c3ccc(O)c(O)c3)[o+]c2c1`: the TGI was 46.7 µM in experiment [1]; greater than 100 µM in experiment [2]; 64 µM in experiment [4]; greater than 100 µM in [6]; 86.8 µM in experiment [10]; greater than 100 µM in experiment [7]. Further, the TGI in experiment [8] and in [9] was greater than 100 µM throughout.
With `Fc1ccc2c(c1)c(-c1nc(-c3c[nH]c4ncccc34)cs1)cn2CCCN1CCCCC1`, the GI50 is 1.61 µM in [2]; 1.96 µM in experiment [5]; 1.85 µM in [6]; 1.76 µM in experiment [8]; 1.68 µM in [9]. In addition, the TGI in experiment [2] worked out at 3.1 µM; in [5], 4.25 µM; in experiment [6], 3.42 µM; in experiment [8], 3.48 µM; in experiment [9] it was 3.24 µM.
Turning to `O=c1ccn(C2OC(CO/N=C/c3ccc(O)c(O)c3O)C(O)C2O)c(=O)[nH]1` (stereo not drawn), the GI50 was 76.4 µM in experiment [1]; greater than 100 µM in experiment [2]; greater than 100 µM in [4]; 57.4 µM in experiment [5]; greater than 100 µM in experiment [6]; 33.9 µM in experiment [10]. For the same compound, the GI50 in experiment [7] was 20.5 µM; in [8], 39 µM; in [9], 28.9 µM. Further, the concentration for total growth inhibition (TGI) in experiment [1], in experiment [2], in [4], in experiment [5], in [6] and in [10] was greater than 100 µM throughout. Further, the TGI in experiment [7] was 50.4 µM; in experiment [8], greater than 100 µM; in [9], 84.3 µM.
Consider `Clc1cc(Cc2cc(Cl)c(Cl)c3c2OCOC3)c2c(c1Cl)COCO2`, for which the TGI in experiment [1] was greater than 100 µM; in [2], greater than 100 µM; in experiment [3] it was greater than 100 µM; in [4], 72.9 µM; in [5], greater than 100 µM; in experiment [6], greater than 100 µM. Moreover, the TGI in experiment [7], in experiment [8] and in experiment [9] was greater than 100 µM in each case.
Regarding `CN(C)c1ccc([O][Bi]([Cl])[Cl])cc1`, the GI50 in [1], in experiment [2], in [4], in experiment [5], in [6] and in experiment [10] was greater than 100 µM each time. The figures for the GI50 in experiment [7], in experiment [8] and in [9] were greater than 100 µM, 87 µM and greater than 100 µM, respectively. In addition, the TGI in experiment [1], in [2], in experiment [4], in experiment [5], in experiment [6] and in [10] was greater than 100 µM each time. The TGI in experiment [7], in experiment [8] and in experiment [9] was greater than 100 µM in each case.
